Measured values taken from patent US20210052703A1 (SHANGHAI BENEMAE PHARMACEUTICAL CORPORATION, priority 2018, published 2021).
Read-outs that look alike come from different tables or passages of the source.

Key:
[1] = test system: male diet induced obesity (DIO) mice; conditions: male DIO mice, X ± SE
Method: (§1) Five minutes after subcutaneous injection, gavage was conducted using 5% carbon powder suspension (in 2% carboxymethylcellulose solution) at 1.5 ml/100 g body weight. […] The stomach was wiped dry with filter paper and weighed for the gross weight of the stomach. Then the content of the stomach was removed and the stomach was weighed for the net weight. The respective distance from the pyloric sphincter to the front of carbon powder suspension and to the distal end of the large intestine was measured. • propelling distance of carbon powder in the intestine (cm)=distance from pylorus to the proximal end of carbon powder; • mass of carbon powder gavaged=concentration of carbon powder suspension×volume; • propelling rate of carbon powder (%)=propelling distance of carbon powder in the intestine (cm)/entire length of intestine (cm)×100%; • rate of gastric remains (%)=(gross weight of stomach−net weight of stomach)/mass of carbon powder gavaged×100%.
(§2) The animals were fasted 29-33 hours before injection, and the animals were not given any water 5-7 hours before injection. Injections were made by subcutaneous administration to the neck, at 0.1 ml/100 g body weight.

Sprague-Dawley (SD) rats = assay: stomach emptying in male and female SD rats, various dosages (Example 6); conditions: for % of Gastric Remains / Gross Weight of Stomach / Propelling Distance of Carbon Powder / Propelling Rate of Carbon Powder: X ± SE
Method: as §1, §2

[2] = female rats, 10 μg/kg subcutaneous
[3] = female rats, 12.5 μg/kg subcutaneous
[4] = female rats, 15 μg/kg subcutaneous
[5] = female rats, 30 μg/kg subcutaneous
[6] = female rats, 45 μg/kg subcutaneous
[7] = female rats, 60 μg/kg subcutaneous
[8] = male rats, 10 μg/kg subcutaneous
[9] = male rats, 12.5 μg/kg subcutaneous
[10] = male rats, 15 μg/kg subcutaneous
[11] = male rats, 30 μg/kg subcutaneous
[12] = male rats, 45 μg/kg subcutaneous
[13] = male rats, 60 μg/kg subcutaneous

SMILES: CC[C@H](C)[C@H](NC(=O)[C@H](Cc1ccccc1)NC(=O)[C@H](CCC(=O)O)NC(=O)[C@H](CCCCN)NC(=O)[C@H](C)NC(=O)[C@H](C)NC(=O)[C@H](CCC(N)=O)NC(=O)CNC(=O)[C@H](CCC(=O)O)NC(=O)[C@H](CC(C)C)NC(=O)[C@H](Cc1ccc(O)cc1)NC(=O)[C@H](CO)NC(=O)[C@H](CO)NC(=O)[C@@H](NC(=O)[C@H](CC(=O)O)NC(=O)[C@H](CO)NC(=O)[C@@H](NC(=O)[C@H](Cc1ccccc1)NC(=O)[C@@H](NC(=O)CNC(=O)[C@H](CCC(=O)O)NC(=O)[C@H](C)NC(=O)[C@@H](N)Cc1cnc[nH]1)[C@@H](C)O)[C@@H](C)O)C(C)C)C(=O)N[C@@H](C)C(=O)N[C@@H](Cc1c[nH]c2ccccc12)C(=O)N[C@@H](CC(C)C)C(=O)N[C@H](C(=O)N[C@@H](CCCCN)C(=O)NCC(=O)N[C@@H](CCCNC(=N)N)C(=O)O)C(C)C [Beinaglutide]
- Propelling Rate of Carbon Powder ([1]; 50 μg/kg): 23.80 ± 2.41%
- % of Gastric Remains ([1]; 75 μg/kg): 78.34 ± 5.75%
- Gross Weight of Stomach ([1]; 75 μg/kg): 0.57 ± 0.03 g
- Propelling Distance of Carbon Powder ([1]; 75 μg/kg): 9.29 ± 1.23 cm
- Propelling Rate of Carbon Powder ([1]; 75 μg/kg): 21.51 ± 2.63%
- % of Gastric Remains ([1]; 100 μg/kg): 74.37 ± 6.06%
- Gross Weight of Stomach ([1]; 100 μg/kg): 0.56 ± 0.02 g
- Propelling Distance of Carbon Powder ([1]; 100 μg/kg): 9.00 ± 1.12 cm
- Propelling Rate of Carbon Powder ([1]; 100 μg/kg): 20.87 ± 2.19%
- minimal effective dosage (inhibition of stomach emptying) (Sprague-Dawley (SD) rats; female rats): 10 µg/kg
- % of Gastric Remains (Sprague-Dawley (SD) rats; [2]): 36.42 ± 6.50%
- Gross Weight of Stomach (Sprague-Dawley (SD) rats; [2]): 1.86 ± 0.14 g
- Propelling Distance of Carbon Powder (Sprague-Dawley (SD) rats; [2]): 53.01 ± 3.12 cm
- Propelling Rate of Carbon Powder (Sprague-Dawley (SD) rats; [2]): 49.92 ± 2.97 %
- % of Gastric Remains (Sprague-Dawley (SD) rats; [3]): 47.54 ± 5.22%
- Gross Weight of Stomach (Sprague-Dawley (SD) rats; [3]): 2.03 ± 0.10 g
- Propelling Distance of Carbon Powder (Sprague-Dawley (SD) rats; [3]): 49.50 ± 2.54 cm
- Propelling Rate of Carbon Powder (Sprague-Dawley (SD) rats; [3]): 46.83 ± 2.41 %
- % of Gastric Remains (Sprague-Dawley (SD) rats; [4]): 51.86 ± 6.07%
- Gross Weight of Stomach (Sprague-Dawley (SD) rats; [4]): 2.18 ± 0.11 g
- Propelling Distance of Carbon Powder (Sprague-Dawley (SD) rats; [4]): 44.50 ± 2.97 cm
- Propelling Rate of Carbon Powder (Sprague-Dawley (SD) rats; [4]): 41.26 ± 2.63 %
- % of Gastric Remains (Sprague-Dawley (SD) rats; [5]): 73.35 ± 16.68 %
- Gross Weight of Stomach (Sprague-Dawley (SD) rats; [5]): 2.59 ± 0.38 g
- Propelling Distance of Carbon Powder (Sprague-Dawley (SD) rats; [5]): 33.96 ± 5.58 cm
- Propelling Rate of Carbon Powder (Sprague-Dawley (SD) rats; [5]): 32.15 ± 5.54 %
- % of Gastric Remains (Sprague-Dawley (SD) rats; [6]): 120.95 ± 9.48 %
- Gross Weight of Stomach (Sprague-Dawley (SD) rats; [6]): 3.55 ± 0.21 g
- Propelling Distance of Carbon Powder (Sprague-Dawley (SD) rats; [6]): 25.06 ± 5.91 cm
- Propelling Rate of Carbon Powder (Sprague-Dawley (SD) rats; [6]): 23.18 ± 5.46 %
- % of Gastric Remains (Sprague-Dawley (SD) rats; [7]): 141.28 ± 8.90 %
- Gross Weight of Stomach (Sprague-Dawley (SD) rats; [7]): 3.90 ± 0.20 g
- Propelling Distance of Carbon Powder (Sprague-Dawley (SD) rats; [7]): 15.71 ± 4.58 cm
- Propelling Rate of Carbon Powder (Sprague-Dawley (SD) rats; [7]): 14.36 ± 4.08 %
- human dose corresponding to minimal effective dosage (Sprague-Dawley (SD) rats; from female rats 10 μg/kg): 0.11 mg/day
- human dose corresponding to minimal effective dosage (Sprague-Dawley (SD) rats; from male rats 30 μg/kg): 0.33 mg/day
- minimal effective dosage (inhibition of stomach emptying) (Sprague-Dawley (SD) rats; male rats): 30 µg/kg
- % of Gastric Remains (Sprague-Dawley (SD) rats; [8]): 39.93 ± 6.46%
- Gross Weight of Stomach (Sprague-Dawley (SD) rats; [8]): 2.39 ± 0.19 g
- Propelling Distance of Carbon Powder (Sprague-Dawley (SD) rats; [8]): 55.20 ± 2.69 cm
- Propelling Rate of Carbon Powder (Sprague-Dawley (SD) rats; [8]): 50.91 ± 2.84%
- % of Gastric Remains (Sprague-Dawley (SD) rats; [9]): 38.98 ± 3.50%
- Gross Weight of Stomach (Sprague-Dawley (SD) rats; [9]): 2.36 ± 0.09 g
- Propelling Distance of Carbon Powder (Sprague-Dawley (SD) rats; [9]): 54.96 ± 3.96 cm
- Propelling Rate of Carbon Powder (Sprague-Dawley (SD) rats; [9]): 50.36 ± 3.34%
- % of Gastric Remains (Sprague-Dawley (SD) rats; [10]): 40.22 ± 7.06%
- Gross Weight of Stomach (Sprague-Dawley (SD) rats; [10]): 2.42 ± 0.20 g
- Propelling Distance of Carbon Powder (Sprague-Dawley (SD) rats; [10]): 52.27 ± 3.75 cm
- Propelling Rate of Carbon Powder (Sprague-Dawley (SD) rats; [10]): 48.22 ± 3.05%
- % of Gastric Remains (Sprague-Dawley (SD) rats; [11]): 58.23 ± 7.38 %
- Gross Weight of Stomach (Sprague-Dawley (SD) rats; [11]): 2.92 ± 0.23 g
- Propelling Distance of Carbon Powder (Sprague-Dawley (SD) rats; [11]): 42.82 ± 2.81 cm
- Propelling Rate of Carbon Powder (Sprague-Dawley (SD) rats; [11]): 38.55 ± 2.81 %
- % of Gastric Remains (Sprague-Dawley (SD) rats; [12]): 97.66 ± 9.95 %
- Gross Weight of Stomach (Sprague-Dawley (SD) rats; [12]): 3.90 ± 0.27 g
- Propelling Distance of Carbon Powder (Sprague-Dawley (SD) rats; [12]): 15.73 ± 4.30 cm
- Propelling Rate of Carbon Powder (Sprague-Dawley (SD) rats; [12]): 14.67 ± 4.13 %
- % of Gastric Remains (Sprague-Dawley (SD) rats; [13]): 110.28 ± 7.79 %
- Gross Weight of Stomach (Sprague-Dawley (SD) rats; [13]): 4.21 ± 0.19 g
- Propelling Distance of Carbon Powder (Sprague-Dawley (SD) rats; [13]): 14.64 ± 4.32 cm
- Propelling Rate of Carbon Powder (Sprague-Dawley (SD) rats; [13]): 12.91 ± 3.68 %
